Measurements taken from patent publication US20220288052A1, “COMPOUND FOR COMBINATION TREATMENT” (priority 2019, published 2022).
Read-outs that look alike come from different tables or passages of the source.

What was measured:
[1] = Metabolic stability in liver microsomes, monkey; format: in vitro ADME
Protocol: The metabolic stability of compound (I) was tested in liver microsomes from all in house available species at 1 and 5 μM. One metabolite of 16 mass units higher than parent, was found in all incubations, except with human liver microsomes.

[2] = target: T1, Serotonin 5-HT3 (Homo sapiens, UniProt P46098); assay: MDS LeadProfilingScreen, Serotonin 5-HT3; format: binding
T1 sequence (P46098 24-478): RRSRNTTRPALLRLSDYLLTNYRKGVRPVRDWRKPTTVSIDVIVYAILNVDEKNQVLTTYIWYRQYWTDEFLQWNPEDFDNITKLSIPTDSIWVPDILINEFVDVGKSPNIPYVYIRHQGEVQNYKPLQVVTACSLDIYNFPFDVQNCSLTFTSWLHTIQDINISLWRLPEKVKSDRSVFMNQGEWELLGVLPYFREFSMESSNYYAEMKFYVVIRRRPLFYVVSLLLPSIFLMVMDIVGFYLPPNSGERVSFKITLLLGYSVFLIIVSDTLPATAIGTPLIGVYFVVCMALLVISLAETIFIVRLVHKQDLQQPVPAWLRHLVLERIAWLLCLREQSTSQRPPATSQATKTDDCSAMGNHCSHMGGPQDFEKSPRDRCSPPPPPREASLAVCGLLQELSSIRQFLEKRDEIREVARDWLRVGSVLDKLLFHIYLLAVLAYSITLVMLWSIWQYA

[3] = target: Nicotinic α4β2 (Rattus norvegicus, UniProt P09483+P12390); assay: In-house nicotinic binding assay, Nicotinic α4β2
[4] = Tissue distribution after single dose, mouse; format: in vivo; settings: po; for AUC(0-t): female, NMRI, mouse 10 mg/kg p.o., read-out: AUC(0-24 h); for half-life: female NMRI mouse 10 mg/kg p.o., read-out: T½ (converted)
Protocol: Compound (I) was dosed to female NMRI mice 10 mg/kg p.o. Plasma was taken 0.5, 1, 2, 4, 6 and 24 post dose. Brain, liver and lung were taken 1, 4 and 24 hours post dose.
AUC and T½ were calculated for plasma and organs, even though the data are very sparse for the organs.

[5] = Linearity after single p.o. dose in mouse; format: in vivo; settings: for AUC(0-inf) / bioavailability / half-life: female, NMRI, mouse; for AUC(0-inf) / bioavailability / half-life / Cmax / Tmax: plasma, po; for bioavailability: compared to 10 mg/kg i.v.; for half-life: read-out: T½ (converted); for Cmax / Tmax: female NMRI mouse; for Tmax: 5% Tween 80
[6] = target: NA transporter (Rattus norvegicus, UniProt Q63380); assay: ^3H-Nisoxetine binding, rat
From the text: (§1) Compound (I) has been characterized as a monoamine reuptake inhibitor, based on the profile in a series of functional assays (Table 2).

[7] = target: DA transporter (Rattus norvegicus, UniProt P23977); assay: ^3H-uptake rat, DA transporter; format: biochemical
From the text: as §1

[8] = target: Sigma σ1 (Homo sapiens, UniProt Q99720); assay: MDS LeadProfilingScreen, Sigma σ1; format: binding
[9] = target: Nicotinic α7 (Rattus norvegicus, UniProt Q05941); assay: In-house nicotinic binding assay, Nicotinic α7
[10] = Bioavailability study in mouse; format: in vivo
From the text: Compound (I) is absorbed quickly.

[11] = test system: NMRI mice; assay: Mouse marble burying test (mMB); format: in vivo
Protocol: FIG. 13: Marble burying. In the marble-burying test mice exposed to a novel object (marbles) bury them in the sawdust floor covering. Compounds showing anxiolytic-like activity decrease the number of buried marbles at non-sedative doses. […] The number of marbles covered by sawdust was counted at the end of a 60-min session.
Compound (I) was tested in three widely used behavioural screens for predicting anxiolytic effects in the clinic: the mouse marble burying test (mMB), mouse zero maze (mZM) and mouse stress-induced hyperthermia test (mSIH).

[12] = test system: NMRI mice; assay: Mouse forced swim test (mFST); format: in vivo
Protocol: Compound (I) was tested in two of the most widely used behavioural screens for predicting antidepressant effects in the clinic: the mouse forced swim test (mFST) and mouse tail suspension test (mTST).
In order to further characterize the role played by 5-HT and DA-ergic neurotransmission in the antidepressant-like effects of compound (I), the potential involvement of 5-HT1A and D1 receptors was investigated in the mFST.

[13] = test system: plasma protein; assay: Plasma protein binding by equilibrium dialysis, dog; format: in vitro ADME
Protocol: The plasma protein binding was tested in rat, mouse, dog and human plasma by equilibrium dialysis. The plasma protein binding of this compound is remarkably low (Table 24).

[14] = test system: brain levels of serotonin (5-HT); assay: In vivo microdialysis, 5-HT; design: species or system rat
Protocol: The purpose of the present study was to examine, by in vivo microdialysis technique, the effects after administration of compound (I) on brain levels of serotonin, noradrenalin and dopamine within the ventral hippocampus (Hipp), prefrontal cortex (PFC), striatum (STR) and nucleus accumbens (N.Acc) of anaesthetized rats and mice. […] Compound (I) was tested following subcutaneous injections at dose levels between 0.25-30 mg/kg.

[15] = female, NMRI, plasma, intravenous, 10 mg/kg
[16] = female, NMRI, plasma, po, 10 mg/kg p.o.

Nicotinic α4β2, sequence (P09483 31-630): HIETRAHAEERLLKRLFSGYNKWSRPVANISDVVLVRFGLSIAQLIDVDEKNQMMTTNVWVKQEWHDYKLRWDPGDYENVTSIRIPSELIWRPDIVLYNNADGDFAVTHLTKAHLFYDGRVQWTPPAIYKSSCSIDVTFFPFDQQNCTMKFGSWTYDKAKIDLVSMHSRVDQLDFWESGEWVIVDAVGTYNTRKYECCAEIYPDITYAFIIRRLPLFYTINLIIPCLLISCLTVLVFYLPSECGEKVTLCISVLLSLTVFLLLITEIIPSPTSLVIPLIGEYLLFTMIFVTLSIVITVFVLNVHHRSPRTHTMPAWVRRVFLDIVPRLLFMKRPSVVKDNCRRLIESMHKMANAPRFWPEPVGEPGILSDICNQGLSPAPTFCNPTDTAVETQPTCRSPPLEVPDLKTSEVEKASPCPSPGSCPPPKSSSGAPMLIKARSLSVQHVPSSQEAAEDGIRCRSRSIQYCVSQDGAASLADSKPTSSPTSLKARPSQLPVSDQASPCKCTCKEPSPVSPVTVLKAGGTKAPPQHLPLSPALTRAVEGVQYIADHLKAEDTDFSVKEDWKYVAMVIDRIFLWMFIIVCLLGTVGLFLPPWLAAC
Nicotinic α4β2, sequence (P12390 25-500): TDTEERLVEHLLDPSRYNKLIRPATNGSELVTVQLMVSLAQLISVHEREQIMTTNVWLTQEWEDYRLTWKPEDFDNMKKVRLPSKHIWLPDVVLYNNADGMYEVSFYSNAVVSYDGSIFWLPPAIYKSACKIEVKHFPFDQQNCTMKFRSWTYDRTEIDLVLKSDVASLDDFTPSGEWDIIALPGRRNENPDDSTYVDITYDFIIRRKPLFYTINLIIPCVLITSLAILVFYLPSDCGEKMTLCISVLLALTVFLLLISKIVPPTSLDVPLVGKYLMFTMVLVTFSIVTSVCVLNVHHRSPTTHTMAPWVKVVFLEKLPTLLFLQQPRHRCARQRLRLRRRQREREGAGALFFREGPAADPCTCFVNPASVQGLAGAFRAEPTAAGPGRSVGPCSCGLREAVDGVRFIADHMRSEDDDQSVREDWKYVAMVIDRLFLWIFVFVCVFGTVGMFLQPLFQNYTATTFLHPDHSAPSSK
Nicotinic α7, sequence (Q05941 23-502): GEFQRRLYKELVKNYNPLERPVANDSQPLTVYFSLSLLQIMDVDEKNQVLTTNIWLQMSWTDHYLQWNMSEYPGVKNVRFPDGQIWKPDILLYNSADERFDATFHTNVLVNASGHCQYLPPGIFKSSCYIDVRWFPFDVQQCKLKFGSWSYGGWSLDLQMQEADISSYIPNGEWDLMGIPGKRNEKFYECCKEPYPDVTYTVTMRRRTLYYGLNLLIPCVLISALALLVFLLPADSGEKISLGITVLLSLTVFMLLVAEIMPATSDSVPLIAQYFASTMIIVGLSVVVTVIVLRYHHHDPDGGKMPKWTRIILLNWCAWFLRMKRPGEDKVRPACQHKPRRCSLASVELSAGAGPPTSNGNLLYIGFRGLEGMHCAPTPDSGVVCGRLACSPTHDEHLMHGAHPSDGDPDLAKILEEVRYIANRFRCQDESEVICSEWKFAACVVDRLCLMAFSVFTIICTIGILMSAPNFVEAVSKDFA
Sigma σ1, sequence (Q99720 whole entry): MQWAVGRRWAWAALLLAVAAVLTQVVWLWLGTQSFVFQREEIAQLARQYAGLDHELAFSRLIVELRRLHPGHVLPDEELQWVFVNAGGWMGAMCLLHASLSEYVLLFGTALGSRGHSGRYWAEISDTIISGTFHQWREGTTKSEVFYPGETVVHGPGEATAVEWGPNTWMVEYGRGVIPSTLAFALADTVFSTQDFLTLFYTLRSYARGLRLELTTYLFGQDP
DA transporter, sequence (P23977 whole entry): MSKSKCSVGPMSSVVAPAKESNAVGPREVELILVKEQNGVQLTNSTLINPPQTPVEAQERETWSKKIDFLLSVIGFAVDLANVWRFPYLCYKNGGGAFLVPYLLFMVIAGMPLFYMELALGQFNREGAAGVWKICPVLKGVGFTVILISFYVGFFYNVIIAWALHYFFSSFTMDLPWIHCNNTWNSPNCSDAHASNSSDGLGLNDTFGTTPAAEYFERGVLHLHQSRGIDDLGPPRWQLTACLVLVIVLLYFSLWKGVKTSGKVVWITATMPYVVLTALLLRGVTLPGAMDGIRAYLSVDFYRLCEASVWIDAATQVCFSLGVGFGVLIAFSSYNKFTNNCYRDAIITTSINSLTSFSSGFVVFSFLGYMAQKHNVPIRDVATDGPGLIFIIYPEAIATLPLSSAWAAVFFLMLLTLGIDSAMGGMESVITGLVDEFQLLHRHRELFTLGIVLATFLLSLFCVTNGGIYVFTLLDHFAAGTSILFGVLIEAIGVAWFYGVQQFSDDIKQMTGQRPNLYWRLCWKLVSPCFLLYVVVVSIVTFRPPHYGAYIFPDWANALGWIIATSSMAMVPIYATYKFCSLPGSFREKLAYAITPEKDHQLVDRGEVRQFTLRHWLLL
NA transporter, sequence (Q63380 1-617): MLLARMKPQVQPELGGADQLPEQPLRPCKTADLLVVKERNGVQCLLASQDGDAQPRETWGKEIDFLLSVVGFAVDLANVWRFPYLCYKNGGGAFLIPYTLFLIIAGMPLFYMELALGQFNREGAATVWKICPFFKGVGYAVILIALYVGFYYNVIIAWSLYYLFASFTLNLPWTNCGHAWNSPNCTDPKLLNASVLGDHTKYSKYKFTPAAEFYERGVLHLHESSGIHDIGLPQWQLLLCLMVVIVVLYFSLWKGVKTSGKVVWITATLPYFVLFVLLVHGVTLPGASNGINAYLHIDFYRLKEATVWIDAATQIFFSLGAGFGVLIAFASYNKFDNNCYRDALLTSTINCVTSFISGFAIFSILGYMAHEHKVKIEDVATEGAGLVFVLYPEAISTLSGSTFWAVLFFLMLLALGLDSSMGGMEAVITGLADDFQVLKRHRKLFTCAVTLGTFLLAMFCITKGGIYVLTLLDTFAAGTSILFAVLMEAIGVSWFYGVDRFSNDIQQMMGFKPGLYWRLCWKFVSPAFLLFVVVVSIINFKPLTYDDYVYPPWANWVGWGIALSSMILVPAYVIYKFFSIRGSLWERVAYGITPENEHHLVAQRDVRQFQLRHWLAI

## O=c1ccc2ccc(O[C@@H]3C[C@H]4CC[C@@H](C3)N4)cc2o1 [Compound (I), exo-7-(8-aza-bicyclo[3.2.1]oct-3-yloxy)-chromen-2-one]
[1]
  Stability at 1 μM: 79%
  Stability at 5 μM: 88%
[2]
  Ki: 1040 nM
[2]; 5-HT3 Ki versus hDAT Ki 155 nM
  Separation to transporter hDAT: x6.7
[2]; 5-HT3 Ki versus hNET Ki 594 nM
  Separation to transporter hNET: x1.7
[2]; Serotonin 5-HT3, Human, 10 μM
  inhibition at 10 µM: 86%
[3]
  IC50: 31000 nM
[4]; Brain
  AUC(0-t): 9350 ng·h/mL
  half-life: 3 h
[4]; Liver
  AUC(0-t): 38500 ng·h/mL
  half-life: 2.5 h
[4]; Lung
  AUC(0-t): 35700 ng·h/mL
  half-life: 2.2 h
[4]; Plasma
  AUC(0-t): 2220 ng·h/mL
  half-life: 1.1 h
[5]; 30 mg/kg p.o.
  AUC(0-inf): 14300 ng·h/mL
  bioavailability: 206%
  half-life: 5.1 h
  Cmax: 3080 ng/mL
  Tmax: 0.5 h
[5]; 60 mg/kg p.o.
  AUC(0-inf): 34700 ng·h/mL
  bioavailability: 250%
  half-life: 6.1 h
  Cmax: 4150 ng/mL
  Tmax: 0.5 h
[5]; mice, relatively high doses p.o., single dose
  Linearity of kinetics (AUC versus dose): tendency to sub-linear kinetics
[6]
  Ki: 1300 nM
[7]
  IC50: 260 nM
[8]
  inhibition at 10 µM: 59%
[9]
  IC50: > 10000 nM
[10]; 10 mg/kg i.v., 10 mg/kg
  T½ i.v.: 0.8 h
[10]; 10 mg/kg p.o., 10 mg/kg
  AUC(0-∞) p.o.: 2308 ng·h/mL
[10]; [15]
  Vd: 3.5 L/kg
  clearance: 71.7 mL/min/kg
[10]; female, NMRI, plasma, iv, 10 mg/kg, 10 mg/kg i.v., read-out: AUC(0-∞) i.v.
  AUC(0-inf): 2310 ng·h/mL
[10]; female, NMRI, plasma, iv, 10 mg/kg, 10 mg/kg i.v., read-out: T½ i.v. (converted)
  half-life: 0.6 h
[10]; [16]
  Cmax: 1090 ng/mL
  Tmax: 0.5 h
[10]; female, NMRI, plasma, po, 10 mg/kg, 10 mg/kg p.o., read-out: AUC(0-∞) p.o.
  AUC(0-inf): 1720 ng·h/mL
[10]; female, NMRI, plasma, po, 10 mg/kg, 10 mg/kg p.o., read-out: T½ p.o. (converted)
  half-life: 1.1 h
[10]; plasma, oral, female NMRI mice, 10 mg/kg p.o. vs 10 mg/kg i.v.
  bioavailability: 74%
[11]; Marble burying, p.o., −60 min
  MED: 0.1 mg/kg
[11]; per oral, NMRI mice, 60-min session
  Number of visible marbles: dose-dependently (0.1-1.0 mg/kg) increases in the number of visible marbles
[12]; mFST (NMRI), p.o. 60 min
  MED: 1 mg/kg
[12]; mFST, 0.03, 0.1, 0.3 mg/kg p.o. −60 min + WAY100635 0.1 mg/kg s.c. −60 min
  MED: 0.1 mg/kg
[12]; mFST, 1, 3, 10 mg/kg p.o. −60 min + SCH23390 0.00375 mg/kg s.c. −60 min
  MED: 10 mg/kg
[12]; mFST, 1, 3, 10 mg/kg p.o. −60 min + WAY100635 1 mg/kg s.c. −60 min
  MED: 1 mg/kg
[12]; mFST, with low dose of WAY100635
  Leftward shift in dose-response: 10 fold
[12]; mFST, with non-sedative dose of SCH23390
  Rightward shift in dose-response: 10 fold
[13]
  fraction unbound at 2710 ng/ml: 0.871
[14]; Hippocampus, 3 mg/kg s.c., 3 mg/kg
  5-HT (AUC0-160 min): 433±53%
[14]; N.Acc, 10 mg/kg s.c.
  5-HT (AUC0-160 min): 151 ± 17%
[14]; Pre-frontal cortex, 0.25 mg/kg s.c., 0.25 mg/kg
  5-HT (AUC0-160 min): 190±15%
[14]; Pre-frontal cortex, 1 mg/kg s.c., 1 mg/kg
  5-HT (AUC0-160 min): 252±48%
[14]; Pre-frontal cortex, 10 mg/kg s.c., 10 mg/kg
  5-HT (AUC0-160 min): 263±47%
[14]; Pre-frontal cortex, WAY100365 0.1 mg/kg + compound (I) 0.25 mg/kg
  5-HT (AUC0-160 min): 253 ± 32%
[14]; Striatum, 3 mg/kg s.c.
  5-HT (AUC0-160 min): 138 ± 31%
[14]; Striatum, 10 mg/kg s.c.
  5-HT (AUC0-160 min): 170 ± 12%
